Data reported in PMC4261083, “An atypical residue in the pore of Varroa destructor GABA-activated RDL receptors affects picrotoxin block and thymol modulation” (Insect Biochemistry and Molecular Biology, 2014).
Where a chain is given by its changes, count along the chain named.

Tests used:
Experiment in all cases: Picrotoxin inhibition of GABA responses, two electrode voltage clamp in Xenopus oocytes
Type in all cases: cell-based
[1] = molecular target: T1, N-7′H mutant Drosophila RDL receptor (Drosophila melanogaster, UniProt P25123, N292H); details: N-7′H RDL
T1 construct: expressed in transfected cells; host or cells: Xenopus laevis oocytes injected with cRNA
T1 sequence (P25123 45-606 N292H): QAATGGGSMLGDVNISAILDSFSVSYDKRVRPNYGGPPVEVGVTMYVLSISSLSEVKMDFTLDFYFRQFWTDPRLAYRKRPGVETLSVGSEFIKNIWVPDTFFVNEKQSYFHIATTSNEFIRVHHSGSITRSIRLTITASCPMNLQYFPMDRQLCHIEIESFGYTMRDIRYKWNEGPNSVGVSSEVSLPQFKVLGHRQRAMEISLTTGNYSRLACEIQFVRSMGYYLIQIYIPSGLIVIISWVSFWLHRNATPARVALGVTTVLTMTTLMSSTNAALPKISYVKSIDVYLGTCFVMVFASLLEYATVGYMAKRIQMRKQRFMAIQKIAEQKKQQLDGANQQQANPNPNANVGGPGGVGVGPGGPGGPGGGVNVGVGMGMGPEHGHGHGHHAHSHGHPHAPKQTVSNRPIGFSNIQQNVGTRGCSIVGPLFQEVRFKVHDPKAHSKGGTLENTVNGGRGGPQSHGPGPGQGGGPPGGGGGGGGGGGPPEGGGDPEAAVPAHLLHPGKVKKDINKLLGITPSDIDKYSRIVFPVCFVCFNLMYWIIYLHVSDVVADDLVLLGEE
Method: (§1) X. laevis oocyte-positive females were purchased from NASCO (Fort Atkinson, Wisconsin, USA) and maintained according to standard methods. Harvested stage V-VI Xenopus oocytes were washed in four changes of ND96 (96 mM NaCl, 2 mM KCl, 1 mM MgCl2, 1 mM CaCl2, 5 mM HEPES, pH 7.5), de-folliculated in 1.5 mg ml^−1 collagenase Type 1A for approximately 2 h, washed again in four changes of ND96 and stored in ND96 containing 2.5 mM sodium pyruvate, 0.7 mM theophylline and […].
(§2) Drosophila RDL subunit cDNA (kindly gifted from N.Millar) was subcloned into pGEMHE for oocyte expression as previously described ([McGonigle and Lummis, 2010], [Millar et al., 1994]). Site directed mutagenesis was performed with the QuikChange mutagenesis kit (Agilent, La Jolla, CA). cRNA was transcribed in vitro from linearised pGEMHE cDNA template using the mMessage mMachine T7 Transcription kit (Ambion, Austin, Texas, USA). Stage V and VI oocytes were injected with 5 ng cRNA, incubated at 18 °C, and currents recorded 18–24 h post-injection.
(§3) Xenopus oocytes were clamped at −60 mV using an OC-725 amplifier (Warner Instruments, Connecticut, USA), Digidata 1322A and the Strathclyde Electrophysiology Software Package (Department of Physiology and Pharmacology, University of Strathclyde, UK), or using the Roboocyte (MultiChannel Systems). Currents were recorded at 5 kHz and filtered at a frequency of 1 kHz. Micro-electrodes were fabricated from borosilicate glass (GC120TF-10, Harvard Apparatus, Edenbridge, Kent, UK) using a one stage horizontal pull (P-87, Sutter Instrument Company, California, USA) and filled with 3 M KCl. Pipette resistances ranged from 1.0 to 2.0 MΩ. Oocytes were perfused with ND96 at a constant rate of 12 ml min^−1. Drug application was via a simple gravity fed system calibrated to run at the same rate.
(§4) Analysis and curve fitting was performed using Prism v5 (GraphPad Software, San Diego, California, USA). Concentration-response data for each oocyte was normalised to the maximum current for that oocyte. The mean and S.E.M. for a series of oocytes were fitted to the four parameter logistic equation in Prism.

[2] = molecular target: T2, 4M2 mutant Drosophila RDL receptor (N-7′H, T6′M, A20′S and A21′Q) (Drosophila melanogaster, UniProt P25123, A319S/A320Q/N292H/T305M); details: 4M2 RDL
T2 construct: expressed in transfected cells; host or cells: Xenopus laevis oocytes injected with cRNA
T2 sequence (P25123 45-606 N292H/T305M/A319S/A320Q): T1 sequence (P25123 45-606 N292H) with T261M, A275S, A276Q
Method: as §1, §2, §3, §4

[3] = molecular target: T3, A21′Q mutant Drosophila RDL receptor (Drosophila melanogaster, UniProt P25123, A320Q)
T3 construct: expressed in transfected cells; host or cells: Xenopus laevis oocytes injected with cRNA
T3 sequence (P25123 45-606 A320Q): T1 sequence (P25123 45-606 N292H) with H248N, A276Q
Method: as §1, §2, §3, §4

## picrotoxin
[1]
  IC50: 560 nM
  Picrotoxin pIC50: 6.25 ± 0.64
[2]; PTX up to 100 μM
  Sensitivity to PTX: insensitive
[2]; inhibition of GABA responses, read-out: Picrotoxin pIC50 (converted)
  IC50: > 100000 nM
[3]
  IC50: 360 nM
  Picrotoxin pIC50: 6.45 ± 0.25
